The results in this text go back to patent US20110039762A1, “TARGETED ANTIMICROBIAL MOIETIES” (C3 JIAN, INC., priority 2009, published 2011).

“Also recorded” adds a separate entry of the source.

The first assay concerns microorganisms (e.g., bacteria, yeasts, fungi). The assay is described as follows: Targeting peptide binding to target microorganisms (Table 3). As to conditions: microorganism the targeting peptide binds; binding in aqueous buffers varied by peptide solubility, preferably 1x PBS.
For “1T-16 (IDMR; Peptide with targeting and/or antimicrobial activity) [Peptide 1T-16]”, the “Target(s)” value is reported as “P. aeruginosa”.
Take “1T-30 (GKAKPYQVRQVLRAVDKLETRRKKGGR; Peptide with targeting and/or antimicrobial activity) [Peptide 1T-30]”: the “Target(s)” value is “S. aureus; also recorded: S. epidermidis; also recorded: C. xerosis; also recorded: C. striatum; also recorded: P. aeruginosa”.
“1T-91 (TSVRPGAAGAAVPAGAAGAAGAGWRWP; Peptide with targeting and/or antimicrobial activity) [Peptide 1T-91]”: the “Target(s)” value is “S. mitis; also recorded: S. mutans; also recorded: S. oralis; also recorded: S. sanguinis”.
With “1T-188 (HRKDVYKK; Peptide with targeting and/or antimicrobial activity) [Peptide 1T-188]”, the “Target(s)” value is recorded as “S. sanguinis”.
As for “1T-282 (ISLVFPAYT; Peptide with targeting and/or antimicrobial activity) [Peptide 1T-282]”, the “Target(s)” value is given as “F. nucleatum; also recorded: P. gingivalis; also recorded: S. gordonii; also recorded: S. mitis; also recorded: S. mutans; also recorded: S. oralis; also recorded: S. salivarious; also recorded: S. sanguinis”.
On the same count and under the same terms, the result for “1T-38 (VMFVLTRGRSPRPMIPAY; Peptide with targeting and/or antimicrobial activity) [Peptide 1T-38]” reads “S. mutans; also recorded: S. aereus; also recorded: S. epidermidis; also recorded: C. jeikeium; also recorded: C. xerosis; also recorded: C. striatum; also recorded: P. aeruginosa”.
With “1T-60 (YLTSLGLDAAEQAQGLLTILKG; Peptide with targeting and/or antimicrobial activity) [Peptide 1T-60]”, the “Target(s)” value is given as “S. aureus; also recorded: S. epidermidis; also recorded: C. jeikeium; also recorded: C. striatum; also recorded: P. aeruginosa”.
The same measure, in the same setting: the result for “1T-267 (RIKEERKNRSYKFFIWRLFDEKTGFI; Peptide with targeting and/or antimicrobial activity) [Peptide 1T-267]” reads “A. naeslundii; also recorded: F. nucleatum; also recorded: P. gingivalis; also recorded: T. denticola; also recorded: S. mitis; also recorded: S. mutans; also recorded: S. oralis; also recorded: S. sanguinis”.
Regarding “1T-34 (AFWLNILLTLLGYIPGIVHAVYIIAKR; Peptide with targeting and/or antimicrobial activity) [Peptide 1T-34]”, the “Target(s)” value is given as “S. aureus; also recorded: S. epidermidis; also recorded: C. jeikeium; also recorded: C. xerosis; also recorded: C. striatum; also recorded: P. aeruginosa”.
Take “1T-58 (CDDLHALERAGKLDALLSA; Peptide with targeting and/or antimicrobial activity) [Peptide 1T-58]”: the “Target(s)” value is “P. aeruginosa”.
Still for that read-out and setting: the result for “1T-291 (DMKIIKLYIKILSFLFIKYCNKKLNSVKLKA; Peptide with targeting and/or antimicrobial activity) [Peptide 1T-291]” reads “A. naeslundii; also recorded: F. nucleatum; also recorded: P. gingivalis; also recorded: T. denticola; also recorded: S. mitis; also recorded: S. mutans; also recorded: S. oralis”; that for “1T-48 (KLQVHHGRATHTLLLQPPLCAPGTIR; Peptide with targeting and/or antimicrobial activity) [Peptide 1T-48]”, “S. aureus; also recorded: S. epidermidis; also recorded: C. jeikeium; also recorded: C. xerosis; also recorded: C. striatum; also recorded: P. aeruginosa”; that for “1T-62 (GCKGCAQRDPCAEPEPYFRLR; Peptide with targeting and/or antimicrobial activity) [Peptide 1T-62]”, “S. epidermidis; also recorded: P. aeruginosa”.
Turning to “1T-50 (HSDEPIPNILFKSDSVH; Peptide with targeting and/or antimicrobial activity) [Peptide 1T-50]”, the “Target(s)” value is recorded as “P. aeruginosa”.
The same measure, in the same setting: the result for “1T-23 (PALVDLSNKEAVWAVLDDHS; Peptide with targeting and/or antimicrobial activity) [Peptide 1T-23]” reads “S. mutans; also recorded: P. aeruginosa”; that for “1T-49 (SLVRIHDQQPWVTRGAFIDAARTCS; Peptide with targeting and/or antimicrobial activity) [Peptide 1T-49]”, “S. aureus; also recorded: S. epidermidis; also recorded: C. jeikeium; also recorded: P. aeruginosa”; that for “1T-286 (LGFFNNKADLVKADTERDNRMSSLKIKDL; Peptide with targeting and/or antimicrobial activity) [Peptide 1T-286]”, “S. sanguinis”.
With “1T-14 (ALAGLAGLISGK; Peptide with targeting and/or antimicrobial activity) [Peptide 1T-14]”, the “Target(s)” value is reported as “S. mutans; also recorded: S. aureus; also recorded: S. epidermidis; also recorded: C. xerosis”.
Regarding “1T-270 (VHEFDIQKILQNR; Peptide with targeting and/or antimicrobial activity) [Peptide 1T-270]”, the “Target(s)” value is given as “F. nucleatum; also recorded: S. mutans; also recorded: S. oralis; also recorded: S. sanguinis”.

Still in this assay, the particulars now being: microorganism(s) the targeting peptide binds; binding in aqueous buffers depending on peptide solubility, preferably 1x PBS.
For “PF-237 (YVKPKVGVHE; Peptide with targeting and/or antimicrobial activity)”, the “Target(s)” value is recorded as “S. epidermidis”.
The same measure, in the same setting: the result for “PF-262 (DPHSEIDVTRYCQLHHFTCQTMQISEREFHYLIETQ; Peptide with targeting and/or antimicrobial activity)” reads “S. mutans; also recorded: S. epidermidis; also recorded: M. luteus; also recorded: E. coli; also recorded: P. aeruginosa; also recorded: A. baumannii”; that for “PF-151 (EEYPARVPLSGEDVTEARRH; Peptide with targeting and/or antimicrobial activity)”, “S. epidermidis and MRSA and E. faecalis and C. jeikeium”.
As for “PF-284 (MRYITYSLIPRLLSKKVIHQQ; Peptide with targeting and/or antimicrobial activity)”, the “Target(s)” value is “C. difficile”.
Same read-out and setting: the result for “PF-242 (KLFEDPLIKSKAVENFQTTWHEQCLAKELAKNM; Peptide with targeting and/or antimicrobial activity)” reads “S. mutans; also recorded: E. coli”; that for “PF-193 (PPHCPPGHAKKGWC; Peptide with targeting and/or antimicrobial activity)”, “S. epidermidis and M. luteus and E. coli and MRSA and E. faecalis and C. jejuni”; that for “PF-351 (YLFFKGKKVAEEEATKDEVKR; Peptide with targeting and/or antimicrobial activity)”, “S. mutans”.
In the case of “PF-195 (EMAEGSADDRLRKTPRDC; Peptide with targeting and/or antimicrobial activity)”, the “Target(s)” value was “S. epidermidis; also recorded: M. luteus; also recorded: E. faecalis; also recorded: C. jeikeium”.
Take “PF-281 (SYNTYYNKLIHGQRTPDGM; Peptide with targeting and/or antimicrobial activity)”: the “Target(s)” value was “S. mutans; also recorded: E. coli”.
On to “PF-101 (DPVPERQEQACACHRTAKPGK; Peptide with targeting and/or antimicrobial activity)”, for which the “Target(s)” value is given as “S. mutans”.
In the case of “PF-325 (LTIDEKLRNHR; Peptide with targeting and/or antimicrobial activity)”, the “Target(s)” value is reported as “S. mutans; also recorded: E. coli”.
In the case of “PF-218 (SETPEKPVGTFFYSIYYKIIL; Peptide with targeting and/or antimicrobial activity)”, the “Target(s)” value was “S. epidermidis; also recorded: M. luteus; also recorded: P. aeruginosa; also recorded: A. baumannii”.

Still in this assay, the particulars now being: microorganism(s) the targeting peptide binds; peptide binding conducted in aqueous buffers varied by peptide solubility, preferably 1x PBS.
In the case of “PF-568 (TQAVQVKTAQAQQQ; Peptide with targeting and/or antimicrobial activity)”, the “Target(s)” value is given as “S. epidermidis”.
In the case of “PF-504 (ILSVELSTKTSASGS; Peptide with targeting and/or antimicrobial activity)”, the “Target(s)” value was “S. mutans; also recorded: E. coli”.
Turning to “PF-509 (EAKVQAKGEQIACNNY; Peptide with targeting and/or antimicrobial activity)”, the “Target(s)” value is given as “S. mutans; also recorded: B. subtilis; also recorded: E. coli”.
Regarding “PF-412 (TSGWLGQLEQ; Peptide with targeting and/or antimicrobial activity)”, the “Target(s)” value was “M. luteus; also recorded: E. coli; also recorded: C. albicans; also recorded: C. jeikeium; also recorded: C. jejuni”.
For “PF-490 (RLILVSGNATVQK; Peptide with targeting and/or antimicrobial activity)”, the “Target(s)” value is “S. mutans; also recorded: E. coli”.
In the case of “PF-495 (KGIYKKRTY; Peptide with targeting and/or antimicrobial activity)”, the “Target(s)” value is recorded as “S. mutans; also recorded: E. coli”.

The assay is the same for the next values; noted with them: peptide binding in aqueous buffers varied by peptide solubility; preferably 1x PBS.
In the case of “PF-709 (NKKHSPMD; Peptide with targeting and/or antimicrobial activity)”, the “Target(s) (microorganisms bound by the targeting peptide)” value is reported as “S. mutans”.
Still for that read-out and setting: the result for “PF-773 (TLKESK; Peptide with targeting and/or antimicrobial activity)” reads “S. epidermidis; also recorded: C. albicans; also recorded: C. jeikeium”; that for “PF-785 (MRPQHSPAGKAFVVKKITHEQS; Peptide with targeting and/or antimicrobial activity)”, “Mycobacteria spp”; that for “PF-768 (GFRGGKRGGARG; Peptide with targeting and/or antimicrobial activity)”, “S. epidermidis; also recorded: S. pneumoniae; also recorded: E. faecalis; also recorded: C. jeikeium”.
Take “PF-689 (SAPSG; Peptide with targeting and/or antimicrobial activity)”: the “Target(s) (microorganisms bound by the targeting peptide)” value was “S. mutans; also recorded: E. coli”.
“PF-679 (CRARFIRR; Peptide with targeting and/or antimicrobial activity)”: the “Target(s) (microorganisms bound by the targeting peptide)” value was “S. mutans; also recorded: E. coli”.
